Measured values: ChEMBL document CHEMBL1148201, “Penasulfate A, a new alpha-glucosidase inhibitor from a marine sponge Penares sp” (J Nat Prod, 2004)

Legend:
[1] = Inhibition of yeast alpha-glucosidase G7256; parameters: species or system Saccharomyces cerevisiae
[2] = Inhibition of Saccharomyces cerevisiae recombinant alpha-glucosidase G0660

| IC50 [1] [µg/mL] | IC50 [2] [µg/mL] | Structure (SMILES) |
| --- | --- | --- |
| 1.2 |  | CCCC[C@H]1CCCCCCCCC[C@H](OS(=O)(=O)[O-])[C@H](OS(=O)(=O)[O-])[C@@H](OS(=O)(=O)[O-])CCCCCCCCCCCCC(=O)N2CCC[C@H]2C(=O)O1.[Na+].[Na+].[Na+] [PENAROLIDE SULFATE A1] |
| 1.5 |  | CCC[C@H]1CCCCCCCCC[C@H](OS(=O)(=O)[O-])[C@H](OS(=O)(=O)[O-])[C@@H](OS(=O)(=O)[O-])CCCCCCCCCCCCCC(=O)N2CCC[C@H]2C(=O)O1.[Na+].[Na+].[Na+] [PENAROLIDE SULFATE A2] |
|  | 3.5 | CCCCCC[C@H](C)CCCCCC[C@H](OS(=O)(=O)[O-])[C@@H](CCCCCCCCCCCCC(=O)N1CCCC[C@@H]1C(=O)OC)OS(=O)(=O)[O-].[Na+].[Na+] [PENASULFATE A] |
